# Paper PMC5615911 (Toxicology Reports, 2016)
# Where “and” joins values, the source holds several entries; their conditions need not be identical. Equal values may be shown once.
# Key:
# [1] = Pharmacokinetics of S3643, single iv or oral dose; assay type: in vivo, Sprague-Dawley rats; conditions: for AUC(0-t): AUClast
# CYP2D6 = CYP2D6 (Homo sapiens, UniProt P10635); test: CYP inhibition, LC–MS/MS assay in human liver microsomes; conditions: probe bufuralol
# E. coli strain WP2 uvrA = test: Bacterial reverse mutation test; assay type: cell-based
# [2] = Toxicokinetics in the 90-day dietary study; assay type: in vivo, Sprague-Dawley rats; conditions: for AUC0–24 h/dose / Cmax/dose: M+F combined
# [3] = female, Sprague-Dawley, rat, plasma, iv, 1 mg/kg
# [4] = female, Sprague-Dawley, rat, plasma, po
# [5] = female, Sprague-Dawley, rat, plasma, po, 10 mg/kg
# [6] = female, Sprague-Dawley, rat, plasma, po, 30 mg/kg
# [7] = female, Sprague-Dawley, rat, plasma, po, 100 mg/kg
# [8] = female, iv 1.0 mg/kg bw, 1 mg/kg
# [9] = male, Sprague-Dawley, rat, plasma, iv, 1 mg/kg
# [10] = male, Sprague-Dawley, rat, plasma, po
# [11] = male, Sprague-Dawley, rat, plasma, po, 10 mg/kg
# [12] = male, Sprague-Dawley, rat, plasma, po, 30 mg/kg
# [13] = male, Sprague-Dawley, rat, plasma, po, 100 mg/kg
# Sequence of CYP2D6 (P10635 whole entry): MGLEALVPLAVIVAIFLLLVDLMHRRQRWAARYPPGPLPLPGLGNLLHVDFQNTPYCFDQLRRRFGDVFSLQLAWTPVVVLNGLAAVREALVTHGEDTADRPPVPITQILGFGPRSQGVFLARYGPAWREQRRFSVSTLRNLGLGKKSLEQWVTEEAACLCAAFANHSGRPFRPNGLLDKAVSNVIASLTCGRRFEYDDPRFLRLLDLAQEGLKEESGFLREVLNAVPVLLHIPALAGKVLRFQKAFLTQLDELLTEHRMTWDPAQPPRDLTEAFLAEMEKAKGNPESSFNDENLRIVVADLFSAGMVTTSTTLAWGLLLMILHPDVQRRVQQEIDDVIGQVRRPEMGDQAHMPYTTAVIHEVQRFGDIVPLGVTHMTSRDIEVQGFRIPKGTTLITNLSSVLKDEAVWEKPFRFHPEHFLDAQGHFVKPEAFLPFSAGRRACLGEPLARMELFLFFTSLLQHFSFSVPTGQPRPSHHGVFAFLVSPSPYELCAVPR
structure (smiles),measurement,setting,value
"COc1cccc(-c2n[nH]c(SCc3ccccn3)n2)c1OC [S3643, 2-(((3-(2,3-dimethoxyphenyl)-1H-1,2,4-triazol-5-yl)thio)methyl)pyridine]",Fold increase in AUClast for 10-fold increase in oral dose,[1]; female,16.8 fold
same,Tmax,[1]; [3],1.8 min
same,Vd,[1]; [3],0.325 L/kg
same,clearance,[1]; [3],8.03 mL/min/kg
same,half-life,[1]; [3],9.6 min
same,bioavailability,[1]; [4],67.4 to 116%
same,half-life,[1]; [4],53.4 to 99.6 min
same,Tmax,[1]; [5],15 min
same,bioavailability,[1]; [5],67.4%
same,half-life,[1]; [5],53.4 min
same,AUC(0-t),"[1]; female, Sprague-Dawley, rat, plasma, po, 10 mg/kg, oral 10 mg/kg bw",14200 ng·h/mL
same,Cmax,"[1]; female, Sprague-Dawley, rat, plasma, po, 10 mg/kg, Cmax, oral 10 mg/kg bw",14900 ng/mL
same,Tmax,[1]; [6],15 min
same,bioavailability,[1]; [6],116%
same,half-life,[1]; [6],68.4 min
same,AUC(0-t),"[1]; female, Sprague-Dawley, rat, plasma, po, 30 mg/kg, oral 30 mg/kg bw",73500 ng·h/mL
same,Cmax,"[1]; female, Sprague-Dawley, rat, plasma, po, 30 mg/kg, Cmax, oral 30 mg/kg bw",45400 ng/mL
same,Tmax,[1]; [7],22.8 min
same,bioavailability,[1]; [7],113%
same,half-life,[1]; [7],99.6 min
same,AUC(0-t),"[1]; female, Sprague-Dawley, rat, plasma, po, 100 mg/kg, oral 100 mg/kg bw",239000 ng·h/mL
same,Cmax,"[1]; female, Sprague-Dawley, rat, plasma, po, 100 mg/kg, Cmax, oral 100 mg/kg bw",98900 ng/mL and 310 µM
same,CL as % of hepatic blood flow,"[1]; female, iv",14.5%
same,Vss as % of total body water volume,"[1]; female, iv",48.6%
same,AUC0-last/dose,"[1]; female, iv 1.0 mg/kg bw",2110 ng·h/mL/mg/kg
same,AUC0-last,[1]; [8],2110 ± 353 ng·h/mL
same,Cmax,[1]; [8],9840 ± 1880 ng/mL
same,AUC0-last/dose,"[1]; female, oral gavage 10 mg/kg bw",1423 ng·h/mL/mg/kg
same,AUC0-last/dose,"[1]; female, oral gavage 30 mg/kg bw",2450 ng·h/mL/mg/kg
same,AUC0-last/dose,"[1]; female, oral gavage 100 mg/kg bw",2393 ng·h/mL/mg/kg
same,Female/male ratio of mean AUClast,[1]; iv 1 mg/kg,0.76
same,Female/male ratio of mean Cmax,[1]; iv 1 mg/kg,0.91
same,Fold increase in AUClast for 10-fold increase in oral dose,[1]; male,6.88 fold
same,Tmax,[1]; [9],1.8 min
same,Vd,[1]; [9],0.337 L/kg
same,clearance,[1]; [9],5.97 mL/min/kg
same,half-life,[1]; [9],11.4 min
same,bioavailability,[1]; [10],65.7 to 96%
same,half-life,[1]; [10],48 to 99.6 min
same,Tmax,[1]; [11],15 min
same,bioavailability,[1]; [11],95.5%
same,half-life,[1]; [11],48 min
same,AUC(0-t),"[1]; male, Sprague-Dawley, rat, plasma, po, 10 mg/kg, oral 10 mg/kg bw",26600 ng·h/mL
same,Cmax,"[1]; male, Sprague-Dawley, rat, plasma, po, 10 mg/kg, Cmax, oral 10 mg/kg bw",32500 ng/mL
same,Tmax,[1]; [12],26.4 min
same,bioavailability,[1]; [12],96%
same,half-life,[1]; [12],58.2 min
same,AUC(0-t),"[1]; male, Sprague-Dawley, rat, plasma, po, 30 mg/kg, oral 30 mg/kg bw",80300 ng·h/mL
same,Cmax,"[1]; male, Sprague-Dawley, rat, plasma, po, 30 mg/kg, Cmax, oral 30 mg/kg bw",50900 ng/mL
same,Tmax,[1]; [13],18.6 min
same,bioavailability,[1]; [13],65.7%
same,half-life,[1]; [13],99.6 min
same,AUC(0-t),"[1]; male, Sprague-Dawley, rat, plasma, po, 100 mg/kg, oral 100 mg/kg bw",183000 ng·h/mL
same,Cmax,"[1]; male, Sprague-Dawley, rat, plasma, po, 100 mg/kg, Cmax, oral 100 mg/kg bw",78300 ng/mL and 238 µM
same,CL as % of hepatic blood flow,"[1]; male, iv",10.8%
same,Vss as % of total body water volume,"[1]; male, iv",50.4%
same,AUC0-last/dose,"[1]; male, iv 1.0 mg/kg bw",2790 ng·h/mL/mg/kg
same,AUC0-last,"[1]; male, iv 1.0 mg/kg bw, 1 mg/kg",2790 ± 187 ng·h/mL
same,Cmax,"[1]; male, iv 1.0 mg/kg bw, 1 mg/kg",10870 ± 1870 ng/mL
same,AUC0-last/dose,"[1]; male, oral gavage 10 mg/kg bw",2665 ng·h/mL/mg/kg
same,Cmax,"[1]; male, oral gavage 10 mg/kg bw, 10 mg/kg",32510 ± 7710 ng/mL
same,AUC0-last/dose,"[1]; male, oral gavage 30 mg/kg bw",2678 ng·h/mL/mg/kg
same,AUC0-last/dose,"[1]; male, oral gavage 100 mg/kg bw",1833 ng·h/mL/mg/kg
same,inhibition at 10 µM,CYP2D6,22%
same,"Reverse mutation (in vitro), result","E. coli strain WP2 uvrA; 250–5000 μg/plate, plate incorporation and pre-incubation, ±S9",Negative
same,"Mutagenicity, conclusion",E. coli strain WP2 uvrA; absence and presence of metabolic activation,not mutagenic
same,AUC0–24 h/dose,"[2]; Day 7, nominal 10 mg/kg bw",574 ng·h/mL/mg/kg
same,Cmax/dose,"[2]; Day 7, nominal 10 mg/kg bw",31.9 ng/mL/mg/kg
same,AUC0–24 h/dose,"[2]; Day 7, nominal 30 mg/kg bw",1140 ng·h/mL/mg/kg
same,Cmax/dose,"[2]; Day 7, nominal 30 mg/kg bw",80.6 ng/mL/mg/kg
same,AUC0–24 h/dose,"[2]; Day 7, nominal 100 mg/kg bw",1280 ng·h/mL/mg/kg
same,Cmax/dose,"[2]; Day 7, nominal 100 mg/kg bw",75.7 ng/mL/mg/kg
same,AUC0–24 h/dose,"[2]; Day 90, nominal 10 mg/kg bw",1070 ng·h/mL/mg/kg
same,Cmax/dose,"[2]; Day 90, nominal 10 mg/kg bw",78.3 ng/mL/mg/kg
same,AUC0–24 h/dose,"[2]; Day 90, nominal 30 mg/kg bw",1560 ng·h/mL/mg/kg
same,Cmax/dose,"[2]; Day 90, nominal 30 mg/kg bw",98.0 ng/mL/mg/kg
same,AUC0–24 h/dose,"[2]; Day 90, nominal 100 mg/kg bw",1730 ng·h/mL/mg/kg
same,Cmax/dose,"[2]; Day 90, nominal 100 mg/kg bw",97.5 ng/mL/mg/kg
same,ACUM Ratio,"[2]; Day 90/Day 7, nominal 10 mg/kg bw",1.86
same,ACUM Ratio,"[2]; Day 90/Day 7, nominal 30 mg/kg bw",1.37
same,ACUM Ratio,"[2]; Day 90/Day 7, nominal 100 mg/kg bw",1.35
same,AUC(0-t),"[2]; both, Sprague-Dawley (Crl:CD(SD)), rat, plasma, po, 100 mg/kg bw/day, Combined mean AUC0-24hr, Day 90, 100 mg/kg bw/day",184000 ng·h/mL
